Experimental data: patent US10882837B2, “Amide compounds and use thereof” (ALPHALA CO., LTD., priority 2017, dated 2021)

What was measured:
glucagon receptor (GCGR) = molecular target: T1, glucagon receptor (GCGR) (Homo sapiens, UniProt P47871); test: Glucagon cAMP inhibition assay (Cisbio cAMP Dynamic 2 HTRF); type: cell-based; details: GCGR overexpressed CHO-K1 cells or human primary hepatocytes (not specified); glucagon at EC50
T1 construct: expressed in transfected cells; host or cells: CHO-K1
T1 sequence (P47871 26-477, species assumed): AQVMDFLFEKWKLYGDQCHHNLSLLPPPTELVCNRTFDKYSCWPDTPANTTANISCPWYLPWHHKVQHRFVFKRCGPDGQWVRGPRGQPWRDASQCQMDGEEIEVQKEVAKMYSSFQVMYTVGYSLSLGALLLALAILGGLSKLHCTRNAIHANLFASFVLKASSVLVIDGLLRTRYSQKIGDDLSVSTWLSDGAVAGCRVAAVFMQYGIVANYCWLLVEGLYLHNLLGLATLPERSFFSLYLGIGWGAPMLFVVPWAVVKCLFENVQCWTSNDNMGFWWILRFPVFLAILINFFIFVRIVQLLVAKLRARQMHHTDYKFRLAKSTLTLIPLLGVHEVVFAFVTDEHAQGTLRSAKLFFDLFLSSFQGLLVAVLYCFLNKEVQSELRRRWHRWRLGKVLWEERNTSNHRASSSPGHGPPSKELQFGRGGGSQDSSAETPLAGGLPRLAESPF
Experimental: Glucagon eAMP Inhibition Assay
Downstream secondary messenger eAMP induced by glucagon was detected by Cisbio cAMP Dynamic 2 kit. Testing compounds were each prepared as a dimethyl sulfoxide (DMSO) solution at the concentration of 10 mM. To evaluate the potency of compounds in inhibiting the cAMP production, glucagon receptor (GCGR) overexpressed CHO-K1 cells or human primary hepatocytes were treated with compounds with a serial dilution. The cells were re-suspended in Hank's Balanced Salt solution (HBSS) contained 0.1% (w/v) bovine serum albumin and 800 nM 3-isobutyl-1-methylxanthine (IBMX) and seeded into low volume, 384 wells white plate. The diluted compounds were then added into the plate for 30 minutes pre-incubation where the final DMSO concentration was 1%. The cells were stimulated with glucagon at the concentration equaled to EC50 (an indicium of the concentration of a drag that gives half-maximal response) for 30 minutes at room temperature. After incubation, lysis buffer contain cAMP antibody and fluorescence acceptor were added into each well for additional 60 minutes incubation. Results were recorded by Molecular Devices SpectraMax Paradigm with the HTRF Detection Cartridges and the IC50 value of each compound in inhibiting the cAMP production was calculated with non-linear regression based on the amount of cAMP production.

GCGR = GCGR (Homo sapiens, UniProt P47871); test: I125-glucagon binding assay (competition, GCGR membrane fractions); set-up: expressed in transfected cells; host or cells: CHO-K1; details: for IC50: competition with I125-glucagon 0.0625 nM, membrane fractions from GCGR overexpressed CHO-K1 cells; for inhibition at 30 µM: compound at 30 μM, read-out: percentage of inhibition (number in parenthesis in IC50 binding column)
GCGR, sequence (P47871 26-477, species assumed): as above
Experimental: I^125-Glucagon Binding Assay
The binding affinity of each compound was evaluated by a competition assay with I^125-glucagon. GCGR membrane fractions were obtained from GCGR overexpressed CHO-K1 cells as a stock of 1 mg/ml concentration. To evaluate the IC50 of compounds binding to GCGR, GCGR membrane fractions were treated with compounds with a serial dilution. The membrane fractions were diluted to 7.5 microgram per well in 70 microliter assay buffer contained 50 mM Tris pH 7.4 and 0.5% (w/v) bovine serum albumin and added into 96 wells plate. The membrane fractions were then mixed with 10 microliter diluted compounds. After 5 minutes pre-incubation, 20 microliter I^125 labeled glucagon (Perkin Elmer) was added into each well at the final concentration of 0.0625 nM. The assay mixtures were incubated at 25° C. for 30 minutes and then transferred onto the Millipore Multiscreen GF/B Plate coated with 0.5% (w/v) Polyethyleneimine. The filter plate was washed with wash buffer contained 50 mM Tris pH 7.4 for 2 times, 300 microliter each time. The residual isotope was detected by Hidex CHAMELEON V micro-beta counter and the IC50 value of each compound binding to GCGR was calculated with non-linear regression.

Row | IC50 (glucagon receptor (GCGR)) [µM] | IC50 (GCGR) [µM] | inhibition at 30 µM (GCGR) [%] | Structure (SMILES)
1 | 0.055 | 1.87 | 43 | CCOC(=O)CCNC(=O)c1ccc(NC(c2ccc(-c3nnc(-c4ccccc4)o3)cc2)C(C)C)cc1 (centres unmarked) [Compound 1-3, Ethyl 3-(4-((2-methyl-1-(4-(5-phenyl-1,3,4-oxadiazol-2-yl)phenyl)propyl)amino)benzamido)propanoate]
2 | 1.87 | 0.351 | – | CCCC[C@H](Nc1ccc(C(=O)NCCC(=O)O)cc1)c1ccc(-c2nnc(C(F)(F)F)o2)cc1 [Compound 1-53, (S)-3-(4-((1-(4-(5-(trifluoromethyl)-1,3,4-oxadiazol-2-yl)phenyl)pentyl)amino)benzamido)propanoic acid]
3 | 0.717 | 0.318 | – | CC(C)C(Nc1ccc(-c2noc(-c3ccccc3)n2)cc1)c1ccc(C(=O)NCCC(=O)O)cc1 (centres unmarked) [Compound 3-11, 3-(4-(2-methyl-1-((4-(5-phenyl-1,2,4-oxadiazol-3-yl)phenyl)amino)propyl)benzamido)propanoic acid]
4 | 0.0897 | 1.1 | – | CCCC[C@H](Nc1ccc(C(=O)NCCC(=O)OCC)cc1)c1ccc(-c2noc(-c3ccccn3)n2)cc1 [Compound 2-37, ethyl (S)-3-(4-((1-(4-(5-(pyridin-2-yl)-1,2,4-oxadiazol-3-yl)phenyl)pentyl)amino)benzamido)propanoate]
5 | 0.24 | 2.9 | – | CCOC(=O)CCNC(=O)c1ccc(NC(c2ccc(-c3noc(C(C)(C)C)n3)cc2)C(C)C)cc1 (centres unmarked) [Compound 2-1, ethyl 3-(4-((1-(4-(5-(tert-butyl)-1,2,4-oxadiazol-3-yl)phenyl)-2-methylpropyl)amino)benzamido)propanoate]
6 | 0.0714 | 1.74 | – | CCOC(=O)CCNC(=O)c1ccc(N[C@H](c2ccc(-c3nc(-c4ccccc4)no3)cc2)C(C)C)cc1 [Compound 5-3, ethyl (S)-3-(4-((2-methyl-1-(4-(3-phenyl-1,2,4-oxadiazol-5-yl)phenyl)propyl)amino)benzamido)propanoate]
7 | 1.02 | 0.0423 | – | CC(C)[C@H](Nc1ccc(C(=O)NCCC(=O)O)cc1)c1ccc(-c2nc3ccccc3s2)cc1 [Compound 4-26, (S)-3-(4-((1-(4-(benzo[d]thiazol-2-yl)phenyl)-2-methylpropyl)amino)benzamido)propanoic acid]
8 | 0.487 | > 30 | – | CCOC(=O)CCNC(=O)c1ccc(C(Oc2ccc(-c3nc4ccccc4o3)cc2)C(C)C)cc1 (centres unmarked) [Compound 7-1, Ethyl 3-(4-(1-(4-(benzo[d]oxazol-2-yl)phenoxy)-2-methylpropyl)benzamido)propanoate]
9 | 0.124 | > 3 | – | CCOC(=O)CCNC(=O)c1ccc(N[C@@H](c2ccc(-c3nc4ccccc4o3)cc2)C(C)C)cc1 [Compound 4-6, ethyl (R)-3-(4-((1-(4-(benzo[d]oxazol-2-yl)phenyl)-2-methylpropyl)amino)benzamido)propanoate]
10 | 0.088 | > 30 | – | CCOC(=O)CCNC(=O)c1ccc(NC(c2ccc(-c3nnc(C(F)(F)F)o3)cc2)C(C)CC)cc1 (centres unmarked) [Compound 1-31, ethyl 3-(4-((2-methyl-1-(4-(5-(trifluoromethyl)-1,3,4-oxadiazol-2-yl)phenyl)butyl)amino)benzamido)propanoate]
11 | 0.242 | 0.923 | – | CCOC(=O)CCNC(=O)c1ccc(N[C@@H](c2ccc(-c3nc4ccccc4o3)cc2)C(C)CC)cc1 (stereo partly drawn) [Compound 4-21, ethyl 3-(4-(((1R)-1-(4-(benzo[d]oxazol-2-yl)phenyl)-2-methylbutyl)amino)benzamido)propanoate]
12 | 0.18 | 18.7 | – | CCOC(=O)CCNC(=O)c1ccc(NC(c2ccc(-c3nnc(C(C)(C)C)o3)cc2)C(C)C)cc1 (centres unmarked) [Compound 1-23]
13 | 8.63 | 0.226 | – | CC(C)CC(Nc1ccc(C(=O)NCCC(=O)O)cc1)c1ccc(-c2noc(C(C)(C)C)n2)cc1 (centres unmarked) [Compound 2-6, 3-(4-((1-(4-(5-(tert-butyl)-1,2,4-oxadiazol-3-yl)phenyl)-3-methylbutyl)amino)benzamido)propanoic acid]
14 | 17.1 | 0.956 | – | CC(C)CC(Nc1ccc(C(=O)NCCC(=O)O)cc1)c1ccc(-c2nnc(C(F)(F)F)o2)cc1 (centres unmarked) [Compound 1-9, 3-(4-((3-Methyl-1-(4-(5-(trifluoromethyl)-1,3,4-oxadiazol-2-yl)phenyl)butyl)amino)benzamido)propanoic acid]
15 | 1.78 | 0.957 | – | CC(C)[C@H](Nc1ccc(-c2nnc(-c3ccccc3)o2)cc1)c1ccc(C(=O)NCCC(=O)O)cc1 [Compound 3-14, (S)-3-(4-(2-methyl-1-(4-(5-phenyl-1,3,4-oxadiazol-2-yl)phenylamino)propyl)benzamido)propanoic acid]
16 | 15.2 | 0.562 | – | CCCCC(Nc1ccc(C(=O)NCCC(=O)O)cc1)c1ccc(-c2nnc(C(C)(C)C)o2)cc1 (centres unmarked) [Compound 1-20, 3-(4-((1-(4-(5-(tert-butyl)-1,3,4-oxadiazol-2-yl)phenyl)pentyl)amino)benzamido)propanoic acid]
17 | 0.239 | 0.0131 | – | CCC(C)[C@H](Nc1ccc(C(=O)NCCC(=O)O)cc1)c1ccc(-c2nc(-c3ccccc3)no2)cc1 (stereo partly drawn) [Compound 5-6, 3-(4-(((1S)-2-methyl-1-(4-(3-phenyl-1,2,4-oxadiazol-5-yl)phenyl)butyl)amino)benzamido)propanoic acid]
18 | 2.54 | 0.072 | – | CCC(C)C(Nc1ccc(C(=O)NCCC(=O)O)cc1)c1ccc(-c2nnc(-c3ccccc3)o2)cc1 (centres unmarked) [Compound 1-11, 3-(4-((2-Methyl-1-(4-(5-phenyl-1,3,4-oxadiazol-2-yl)phenyl)butyl)amino)benzamido)propanoic acid]
19 | 0.113 | 1.22 | – | COC(=O)CCNC(=O)c1ccc(NC(c2ccc(-c3nnc(-c4ccccc4)o3)cc2)C(C)C)cc1 (centres unmarked) [Compound 1-2, Methyl 3-(4-((2-methyl-1-(4-(5-phenyl-1,3,4-oxadiazol-2-yl)phenyl)propyl)amino)benzamido)propanoate]
20 | 0.059 | 1.02 | 32 | CCCC[C@H](Nc1ccc(C(=O)NCCC(=O)OCC)cc1)c1ccc(-c2nc(-c3ccccc3)no2)cc1 [Compound 5-7, ethyl (S)-3-(4-((1-(4-(3-phenyl-1,2,4-oxadiazol-5-yl)phenyl)pentyl)amino)benzamido)propanoate]
21 | 1.19 | 0.058 | – | CC(C)C(Nc1ccc(C(=O)NCCC(=O)O)cc1)c1ccc(-c2noc(-c3ccc(F)cc3)n2)cc1 (centres unmarked) [Compound 2-25, 3-(4-((1-(4-(5-(4-fluorophenyl)-1,2,4-oxadiazol-3-yl)phenyl)-2-methylpropyl)amino)benzamido)propanoic acid]
22 | 0.209 | 0.208 | – | CC(C)C(Oc1ccc(-c2nc3ccccc3s2)cc1)c1ccc(C(=O)NCCC(=O)O)cc1 (centres unmarked) [Compound 7-4, 3-(4-(1-(4-(Benzo[d]thiazol-2-yl)phenoxy)-2-methylpropyl)benzamido)propanoic acid]
23 | 1.08 | 0.101 | – | CCCCC(Nc1ccc(C(=O)NCCC(=O)O)cc1)c1ccc(-c2nc3ccccc3o2)cc1 (centres unmarked) [Compound 4-4, 3-(4-((1-(4-(benzo[d]oxazol-2-yl)phenyl)pentyl)amino)benzamido)propanoic acid]
24 | 0.147 | 0.616 | – | CCCCC(Nc1ccc(C(=O)NCCC(=O)OC)cc1)c1ccc(-c2noc(-c3ccccc3)n2)cc1 (centres unmarked) [Compound 2-32, methyl 3-(4-((1-(4-(5-phenyl-1,2,4-oxadiazol-3-yl)phenyl)pentyl)amino)benzamido)propanoate]
25 | 1.75 | 0.083 | – | CC(C)C[C@H](Nc1ccc(C(=O)NCCC(=O)O)cc1)c1ccc(-c2nc3ccccc3o2)cc1 [Compound 4-18]
26 | 0.248 | 0.042 | – | CCOC(=O)CCNC(=O)c1ccc(N[C@H](CC(C)C)c2ccc(-c3noc(-c4ccccc4)n3)cc2)cc1 [Compound 2-42, ethyl (R)-3-(4-((3-methyl-1-(4-(5-phenyl-1,2,4-oxadiazol-3-yl)phenyl)butyl)amino)benzamido)propanoate]
27 | 0.118 | > 30 | – | CCOC(=O)CCNC(=O)c1ccc(NC(CC(C)C)c2ccc(-c3nnc(-c4ccc(F)cc4)o3)cc2)cc1 (centres unmarked) [Compound 1-27, ethyl 3-(4-((1-(4-(5-(4-fluorophenyl)-1,3,4-oxadiazol-2-yl)phenyl)-3-methylbutyl)amino)benzamido)propanoate]
